Results reported in patent EP4755887A1, “POLYCYCLIC FUSED-RING BTK DEGRADATION AGENT AND USE THEREOF IN MEDICINE” (Haisco Pharmaceutical Group Co., Ltd., priority 2023, dated 2025).
Read-outs that look alike come from different tables or passages of the source.

Columns and labels:
BTK = BTK (Homo sapiens, UniProt Q06187); test: Detection of BTK degradation in Mino cells; format: cell-based; conditions: read-out: DC50 values for BTK degradation in Mino cells
TMD-8 cells = test: TMD-8 cell proliferation inhibitory activity test; format: cell-based; conditions: Homo sapiens, TMD8, 72 hours, CellTiter-Glo, read-out: IC50 values for inhibiting TMD-8 cell proliferation
Description: TMD-8 is a human lymphoma cell line that expresses BTK protein and is used to evaluate the efficacy of compounds. […] The cells were seeded into a 96-well culture plate (Biosharp, BS-MP-96W) at a density of 3,000 cells per well. […] Following incubation, 50 µL of a detection solution (CellTiter-Glo®, Promega, G7573) was added to each well, and the plate was uniformly mixed for 2 minutes and incubated at room temperature for 10 minutes. The chemiluminescence reading was then measured using a microplate reader (Molecular Devices, SpectraMax Paradigm). The inhibition rate of cell proliferation by the compounds was calculated according to Equation (1), where RLU compound represents the readout from the compound-treated well, RLU control represents the readout from the DMSO vehicle control well, and RLU blank represents the readout from the cell-free well. Data analysis was performed using Graphpad Prism 8.0 software. The concentration-response curve was generated by fitting the data to a four-parameter equation, and the IC50 values for the compound's inhibition of cell proliferation were calculated. Inh% = 100%−(RLUcompound−RLUblank)/(RLUcontrol−RLUblank)*100% [formula] Table 1. IC50 values for inhibiting TMD-8 cell proliferation

[1] = Pharmacokinetic test in rats; format: in vivo; conditions: male, SD, rat, plasma, po, i.g. (10 mg/kg)
Description: Experimental objective: In this experiment, a single dose of the test compound was administered to SD rats via intravenous administration and intragastric gavage, and the concentration of the test compound in plasma of the rats was measured to evaluate the pharmacokinetic profile of the test compound in the rats.
Experimental animals: Male SD rats, 200-220 g, 6-8 weeks old, 6 rats/compound, purchased from Chengdu Ddossy Experimental Animals Co., Ltd.
Experimental method: On the day of the experiment, 6 SD rats were randomly grouped according to their body weights. The animals were fasted with water available for 12 to 14 h one day before the administration, and were fed 4 h after the administration.
Sampling: Before and after the administration, 0.06-0.15 mL of blood was taken from the orbits under isoflurane anaesthesia, and placed in an EDTAK2 centrifuge tube. Centrifugation was carried out at 5000 rpm at 4°C for 10 min, and the plasma was collected.
The plasma collection time points for PO groups were 0, 5 min, 15 min, 30 min, 1 h, 2 h, 4 h, 7 h, 24 h, and 48 h.
The plasma collection time points for IV groups were 0, 5 min, 15 min, 30 min, 1 h, 2 h, 4 h, 7 h, and 24 h.
Before analysis and detection, all samples were stored at -60°C. The samples were analysed quantitatively by LC-MS/MS.

Caco2 permeability test = format: in vitro ADME; conditions: human, Caco-2 monolayer, pH 7.4
Description: In the experiment, a monolayer of Caco-2 cells was used, and incubated in triplicate in a 96-well Transwell plate. A transport buffer solution (HBSS, 10 mM HEPES, pH 7.4 ± 0.05) containing the compound of the present invention (2 µM) or the control compound digoxin (10 µM), nadolol (2 µM) or metoprolol (2 µM) was added to the administration end hole on the apical side or basal side. A DMSO-containing transport buffer solution was added to the corresponding receiving end hole. After incubation for 2 hours at 37°C ± 1°C, the cell plate was removed, and an appropriate amount of samples was taken from both the apical side and basal side and transferred to a new 96-well plate. Subsequently, acetonitrile containing an internal standard was added to precipitate the protein. The samples were analysed using LC MS/MS, and the concentrations of the compound of the present invention and the control compound were determined. Concentration data were used to calculate apparent permeability coefficients for transport from the apical side to the basal side, and from the basal side to the apical side of the cell monolayer, and thus to calculate the efflux ratio. The integrity of the cell monolayer after 2 hours of incubation was evaluated by leakage of Lucifer Yellow.

BTK L528W = BTK L528W (Homo sapiens, UniProt Q06187, L528W)
BTK L528W, sequence (Q06187 whole entry L528W): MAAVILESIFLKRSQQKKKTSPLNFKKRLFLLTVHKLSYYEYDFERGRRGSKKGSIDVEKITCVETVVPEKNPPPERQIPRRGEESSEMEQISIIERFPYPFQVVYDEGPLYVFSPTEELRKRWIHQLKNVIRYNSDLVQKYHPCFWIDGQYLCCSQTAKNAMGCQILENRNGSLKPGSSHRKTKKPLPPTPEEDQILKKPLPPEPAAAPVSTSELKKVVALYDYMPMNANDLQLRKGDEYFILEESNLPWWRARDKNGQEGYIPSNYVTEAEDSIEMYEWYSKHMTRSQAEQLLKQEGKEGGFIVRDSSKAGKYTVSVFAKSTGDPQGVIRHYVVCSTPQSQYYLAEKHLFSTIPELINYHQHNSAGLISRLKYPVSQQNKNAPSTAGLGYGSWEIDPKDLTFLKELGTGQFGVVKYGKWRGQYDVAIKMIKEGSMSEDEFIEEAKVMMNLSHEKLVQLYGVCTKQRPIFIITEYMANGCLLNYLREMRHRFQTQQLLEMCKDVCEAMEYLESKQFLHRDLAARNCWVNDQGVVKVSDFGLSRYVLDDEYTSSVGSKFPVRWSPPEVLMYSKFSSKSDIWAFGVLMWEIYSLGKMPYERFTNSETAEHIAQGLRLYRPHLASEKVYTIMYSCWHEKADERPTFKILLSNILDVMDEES

[2] = Mino cells, 6 hours, automated western blot
[3] = 5 nM concentration, REC-1 BTK L528W cells, 6 hours

BTK, sequence (Q06187 whole entry): as the sequence (Q06187 whole entry L528W) above, with W528L counted along it

For `CN1CCN([C@@H]2CCCN(c3cnc(C(N)=O)c(Nc4ccc(N5CCC(CN6CCN7c8cc(F)c(C9CCC(=O)NC9=O)cc8CC[C@@H]7C6)C(F)(F)C5)cc4)n3)C2)C1=O` (single isomer, unassigned) [Compound 27], the DC50 (BTK; [2]) was under 10 nM.

With `CN1CCN([C@@H]2CCCN(c3cnc(C(N)=O)c(Nc4ccc(N5CCC(CN6CCN7c8cc(F)c(C9CCC(=O)NC9=O)cc8CC[C@@H]7C6)C(F)(F)C5)cc4)n3)C2)C1=O` (single isomer, unassigned) [Compound 28] the DC50 (BTK; [2]) was under 10 nM.

Work on `CN1CCN([C@@H]2CCCN(c3cnc(C(N)=O)c(Nc4ccc(N5CCC(CN6CCN7c8cc(F)c(C9CCC(=O)NC9=O)cc8CC[C@H]7C6)C(F)(F)C5)cc4)n3)C2)C1=O` (single isomer, unassigned) [Compound 29] yielded a DC50 (BTK; [2]) of under 10 nM.

For `CN1CCN([C@@H]2CCCN(c3cnc(C(N)=O)c(Nc4ccc(N5CCC(CN6CCN7c8cc(F)c(C9CCC(=O)NC9=O)cc8CC[C@H]7C6)C(F)(F)C5)cc4)n3)C2)C1=O` (single isomer, unassigned) [Compound 30], the DC50 (BTK; [2]) was under 10 nM.

`CN1CCN([C@@H]2CCCN(c3cnc(C(N)=O)c(Nc4ccc(N5CCC(CN6CCN7c8cc(F)c(C9CCC(=O)NC9=O)cc8CC[C@H]7C6)CC5)cc4)n3)C2)C1=O` (some centres unmarked) [Compound 11] gave an IC50 (TMD-8 cells) of under 20 nM, a DC50 (BTK; [2]) of under 10 nM and a bioavailability ([1]; Vehicle 1) of over 50%. For the same molecule, the AUC(0-t) ([1]; Vehicle 1) was over 1000 ng·h/mL, the Papp A→B at 2 h, 2 µM (Caco2 permeability test) was 1.75 ×10⁻⁶ cm/s and the Papp B→A at 2 h, 2 µM (Caco2 permeability test) was 3.74 ×10⁻⁶ cm/s. It also gave an efflux ratio at 2 h, 2 µM (Caco2 permeability test) of 2.14.

Work on `CN1CCN([C@@H]2CCCN(c3cnc(C(N)=O)c(Nc4ccc(N5CCC(CN6CCN7c8cc(F)c(C9CCC(=O)NC9=O)cc8CC[C@@H]7C6)CC5)cc4)n3)C2)C1=O` (some centres unmarked) [Compound 12] yielded an IC50 (TMD-8 cells) of under 20 nM, a DC50 (BTK; [2]) of under 10 nM and a Papp A→B at 2 h, 2 µM (Caco2 permeability test) of 1.18 ×10⁻⁶ cm/s. The Papp B→A at 2 h, 2 µM (Caco2 permeability test) was 4.71 ×10⁻⁶ cm/s, the efflux ratio at 2 h, 2 µM (Caco2 permeability test) was 3.99 and the “BTK degradation rate %” value (BTK L528W; [3]) was over 90%.

Work on `CN1CCN([C@@H]2CCCN(c3cnc(C(N)=O)c(Nc4ccc(N5CCC6(CC5)CC(CN5CCN7c8cc(F)c(C9CCC(=O)NC9=O)cc8CC[C@H]7C5)C6)cc4)n3)C2)C1=O` (some centres unmarked) [Compound 14] yielded a DC50 (BTK; [2]) of under 10 nM, an AUC(0-t) ([1]; Vehicle 2) of over 1000 ng·h/mL and a Papp A→B at 2 h, 2 µM (Caco2 permeability test) of 0.35 ×10⁻⁶ cm/s. It also gave a Papp B→A at 2 h, 2 µM (Caco2 permeability test) of 0.867 ×10⁻⁶ cm/s and an efflux ratio at 2 h, 2 µM (Caco2 permeability test) of 2.47.

With `CN1CCN([C@@H]2CCCN(c3cnc(C(N)=O)c(Nc4ccc(N5CCC(CN6CCN7c8cc(F)c(N9CCC(=O)NC9=O)cc8CC[C@@H]7C6)CC5)cc4)n3)C2)C1=O` [Compound 22] the DC50 (BTK; [2]) was under 10 nM, the AUC(0-t) ([1]; Vehicle 2) was over 1000 ng·h/mL and the Papp A→B at 2 h, 2 µM (Caco2 permeability test) was 2.38 ×10⁻⁶ cm/s. For the same molecule, the Papp B→A at 2 h, 2 µM (Caco2 permeability test) was 4.44 ×10⁻⁶ cm/s and the efflux ratio at 2 h, 2 µM (Caco2 permeability test) was 1.87.

Work on `CN1CCN([C@@H]2CCCN(c3cnc(C(N)=O)c(Nc4ccc(N5CCC6(CC5)CC(N5CCN7c8cc(F)c(C9CCC(=O)NC9=O)cc8CC[C@H]7C5)C6)cc4)n3)C2)C1=O` (some centres unmarked) [Compound 31] yielded a DC50 (BTK; [2]) of under 10 nM.

With `CN1CCN([C@@H]2CCCN(c3cnc(C(N)=O)c(Nc4ccc(N5CCC6(CC5)CC(N5CCN7c8cc(F)c(C9CCC(=O)NC9=O)cc8CC[C@@H]7C5)C6)cc4)n3)C2)C1=O` (some centres unmarked) [Compound 32] the DC50 (BTK; [2]) was under 10 nM.

In the case of `CN1CCN([C@@H]2CCCN(c3cnc(C(N)=O)c(Nc4ccc(N5CCC6(CC5)CC(N5CCN7c8cc(F)c(C(=O)N[C@H]9CCC(=O)NC9=O)cc8CC[C@H]7C5)C6)cc4)n3)C2)C1=O` [Compound 34], the DC50 (BTK) is reported as under 10 nM and the “BTK degradation rate %” value (BTK L528W) is reported as over 90%.

With `CN1CCN([C@@H]2CCCN(c3nnc(C(N)=O)c(Nc4ccc(N5CCC(CN6CCN7c8cc(F)c(C(=O)N[C@H]9CCC(=O)NC9=O)cc8CC[C@@H]7C6)CC5)cc4)n3)C2)C1=O` [Compound 47] the DC50 (BTK) was under 10 nM and the “BTK degradation rate %” value (BTK L528W) was over 90%.

Work on `CN1CCN([C@@H]2CCCN(c3cnc(C(N)=O)c(Nc4ccc(N5CCC6(CC5)CC(CN5CCN7c8cc(F)c(C(=O)N[C@H]9CCC(=O)NC9=O)cc8CC[C@@H]7C5)C6)cc4)n3)C2)C1=O` [Compound 50] yielded a DC50 (BTK) of under 10 nM.

In the case of `[2H]C([2H])([2H])N1CCN([C@@H]2CCCN(c3nnc(C(N)=O)c(Nc4ccc(N5CCC(CN6CCN7c8cc(F)c(C(=O)N[C@H]9CCC(=O)NC9=O)cc8CC[C@@H]7C6)CC5)cc4)n3)C2)C1=O` [Compound 61], the DC50 (BTK) is reported as under 10 nM and the “BTK degradation rate %” value (BTK L528W) is reported as over 90%.

For `[2H]C([2H])([2H])N1CCN([C@@H]2CCCN(c3cnc(C(N)=O)c(Nc4ccc(N5CCC(CN6CCN7c8cc(F)c(N9CCC(=O)NC9=O)cc8CC[C@@H]7C6)CC5)cc4)n3)C2)C1=O` [Compound 66], the DC50 (BTK) was under 10 nM and the “BTK degradation rate %” value (BTK L528W) was over 80%.

For `[2H]C([2H])([2H])N1CCN([C@@H]2CCCN(c3cnc(C(N)=O)c(Nc4ccc(N5CCC(CN6CCN7c8cc(F)c(C(=O)N[C@H]9CCC(=O)NC9=O)cc8CC[C@H]7C6)CC5)cc4)n3)C2)C1=O` [Compound 67], the DC50 (BTK) was under 10 nM and the “BTK degradation rate %” value (BTK L528W) was over 90%.

In the case of `[2H]C([2H])([2H])N1CCN([C@@H]2CCCN(c3cnc(C(N)=O)c(Nc4ccc(N5CCC(CN6CCN7c8cc(F)c(C(=O)N[C@H]9CCC(=O)NC9=O)cc8CC[C@@H]7C6)CC5)cc4)n3)C2)C1=O` [Compound 68], the DC50 (BTK) is reported as under 10 nM and the “BTK degradation rate %” value (BTK L528W) is reported as over 90%.

In the case of `CN1CCN([C@@H]2CCCN(c3nnc(C(N)=O)c(Nc4ccc(N5CCC(CN6CCN7c8cc(F)c(C9CCC(=O)NC9=O)cc8CC[C@@H]7C6)CC5)c(F)c4)n3)C2)C1=O` (some centres unmarked) [Compound 77], the AUC(0-t) ([1]; Vehicle 2) is reported as over 1000 ng·h/mL, the Papp A→B at 2 h, 2 µM (Caco2 permeability test) is reported as 0.984 ×10⁻⁶ cm/s and the Papp B→A at 2 h, 2 µM (Caco2 permeability test) is reported as 4.89 ×10⁻⁶ cm/s. The efflux ratio at 2 h, 2 µM (Caco2 permeability test) was 4.97 and the “BTK degradation rate %” value (BTK L528W; [3]) was over 90%.

In the case of `COCCN1CCN([C@@H]2CCCN(c3nnc(C(N)=O)c(Nc4ccc(N5CCC(CN6CCN7c8cc(F)c(C9CCC(=O)NC9=O)cc8CC[C@H]7C6)CC5)cc4)n3)C2)C1=O` (some centres unmarked) [Compound 82], the “BTK degradation rate %” value (BTK L528W; [3]) is reported as over 85%.

In the case of `COCCN1CCN([C@@H]2CCCN(c3nnc(C(N)=O)c(Nc4ccc(N5CCC(CN6CCN7c8cc(F)c(C9CCC(=O)NC9=O)cc8CC[C@H]7C6)CC5)c(F)c4)n3)C2)C1=O` (some centres unmarked) [Compound 83], the “BTK degradation rate %” value (BTK L528W; [3]) is reported as over 85%.

With `COCCN1CCN([C@@H]2CCCN(c3cnc(C(N)=O)c(Nc4ccc(N5CCC(CN6CCN7c8cc(F)c(C9CCC(=O)NC9=O)cc8CC[C@H]7C6)CC5)cc4)n3)C2)C1=O` (some centres unmarked) [Compound 84] the “BTK degradation rate %” value (BTK L528W; [3]) was over 70%.

With `NC(=O)c1nnc(N2CCC[C@@H](N3CCN(C4CC4)C3=O)C2)nc1Nc1ccc(N2CCC(CN3CCN4c5cc(F)c(C6CCC(=O)NC6=O)cc5CC[C@H]4C3)CC2)cc1` (some centres unmarked) [Compound 89] the “BTK degradation rate %” value (BTK L528W; [3]) was over 80%.

In the case of `CN1CCN([C@@H]2CCCN(c3cnc(C(N)=O)c(Nc4ccc(C5CCN(CC6CCN(c7ccc(C(=O)N[C@H]8CCC(=O)NC8=O)nc7)CC6)CC5)cc4)n3)C2)C1=O` [Control compound 1, reference compound], the Papp A→B at 2 h, 2 µM (Caco2 permeability test) is reported as 0.101 ×10⁻⁶ cm/s, the Papp B→A at 2 h, 2 µM (Caco2 permeability test) is reported as 5.27 ×10⁻⁶ cm/s and the efflux ratio at 2 h, 2 µM (Caco2 permeability test) is reported as 52.5.

`CN1CCN([C@@H]2CCCN(c3cnc(C(N)=O)c(Nc4ccc(N5CCC(N6CCN7c8cc(F)c(C(=O)N[C@H]9CCC(=O)NC9=O)cc8CC[C@H]7C6)CC5)cc4)n3)C2)C1=O` [Trifluoroacetate of compound 36] showed a DC50 (BTK) of under 10 nM.

For `NC(=O)c1nnc(N2CCC[C@@H](N3CCN(CC4CC4)C3=O)C2)nc1Nc1ccc(N2CCC(CN3CCN4c5cc(F)c(C6CCC(=O)NC6=O)cc5CC[C@H]4C3)CC2)cc1` (some centres unmarked) [Trifluoroacetate of compound 93], the “BTK degradation rate %” value (BTK L528W; [3]) was over 70%.
